ChEMBL document CHEMBL5214890 (Eur J Med Chem, 2021)
Active and inactive are the calls of the source.

How the values were obtained:
[1] = Toxicity in male db/db mouse assessed as change in serum lipase level at 30 nmol/kg, sc administered twice daily for 35 days; format: organism-based; details: in vivo, 840 h, time 35 day
Mus musculus [2] = assay: Antidiabetic activity in 2 hrs fasted male C57BL/6J mouse at 10 to 30 nmol/kg, ip administered at 0 mins in presence of somatostatin at 10 mg/kg, sc administered at -30 mins and measured by oral glucose tolerance test; format: functional, organism-based; details: dose 10-30 nmol/kg
Mus musculus [3] = assay: Antidiabetic activity in male DIO mouse assessed as decrease in fasted blood glucose at 100 nmol/kg, sc administered twice daily for 7 days; format: functional, organism-based; details: time 7.0 day
[4] = MRT in male Sprague-Dawley rat at 25 nmol/kg, sc administered as single dose and measured after 24 hrs by LC-MS/MS analysis; format: ADME, organism-based; details: in vivo
[5] = Toxicity in male db/db mouse assessed as change in liver ALT level at 100 nmol/kg, sc administered twice daily for 7 days; format: organism-based; details: in vivo, 168 h, time 7 day
[6] = AUC (inifinity) in male Sprague-Dawley rat at 25 nmol/kg, sc administered as single dose and measured after 24 hrs by LC-MS/MS analysis; format: ADME, organism-based; parameters: dose 25 nmol/kg, time 24 hrs, route sc; details: in vivo
Mus musculus [7] = assay: Antidiabetic activity in male […] assessed as reduction in food intake at 30 nmol/kg, sc administered twice daily for 3 weeks; format: functional, organism-based
Rattus norvegicus [8] = assay: Antidiabetic activity in overnight fasted male Sprague-Dawley rat assessed as reduction in food intake at 300 nmol/kg, ip; format: functional; parameters: scale not given: the % may be the effect or the level left
[9] = Toxicity in male db/db mouse assessed as change in Cre level at 30 nmol/kg, sc administered twice daily for 35 days; format: organism-based; details: in vivo, 840 h, time 35 day
Mus musculus [10] = assay: Antidiabetic activity in male […] assessed as reduction in fasted glucose level at 30 nmol/kg, sc administered twice daily for 3 weeks; format: functional, organism-based
[11] = Toxicity in male DIO mouse assessed as change in Cre at 100 nmol/kg, sc administered twice daily for 7 days; format: organism-based; details: in vivo, 168 h, time 7 day
[12] = Toxicity in male db/db mouse assessed as reduction in body weight at 100 nmol/kg, sc administered twice daily for 7 days; format: organism-based; details: in vivo, 168 h, time 7 day
[13] = Cmax in male Sprague-Dawley rat at 25 nmol/kg, iv administered as single dose and measured after 24 hrs by LC-MS/MS analysis; format: ADME, organism-based; parameters: dose 25 nmol/kg, time 24 hrs, route iv; details: in vivo
[14] = Toxicity in male db/db mouse assessed as change in Cre at 100 nmol/kg, sc administered twice daily for 7 days; format: organism-based; details: in vivo, 168 h, time 7 day
[15] = Toxicity in male db/db mouse assessed as change in liver AST level at 100 nmol/kg, sc administered twice daily for 7 days; format: organism-based; details: in vivo, 168 h, time 7 day
[16] = Cmax in male Sprague-Dawley rat at 25 nmol/kg, sc administered as single dose and measured after 24 hrs by LC-MS/MS analysis; format: ADME, organism-based; parameters: time 24 hrs, dose 25 nmol/kg, route sc; details: in vivo
[17] = Toxicity in male DIO mouse assessed as reduction in body weight at 100 nmol/kg, sc administered twice daily for 7 days; format: organism-based; parameters: scale not given: the % may be the effect or the level left; details: in vivo, 168 h, time 7 day
[18] = Toxicity in male DIO mouse assessed as change in serum amylase at 100 nmol/kg, sc administered twice daily for 7 days; format: organism-based; details: in vivo, 168 h, time 7 day
Glucagon receptor = Glucagon receptor (Homo sapiens, UniProt P47871); assay: Agonist activity at human GCGR expressed in HEK293 cells incubated for 30 mins and assessed as increase in cAMP accumulation measured by HTRF assay; format: functional, cell-based
[19] = Toxicity in male db/db mouse assessed as change in serum amylase level at 30 nmol/kg, sc administered twice daily for 35 days; format: organism-based; details: in vivo, 840 h, time 35 day
Rattus norvegicus [20] = assay: Antidiabetic activity in overnight fasted male Sprague-Dawley rat assessed as reduction in food intake at 100 nmol/kg, ip; format: functional; parameters: scale not given: the % may be the effect or the level left
Rattus norvegicus [21] = assay: Antidiabetic activity in overnight fasted male Sprague-Dawley rat assessed as reduction in food intake at 10 nmol/kg, ip; format: functional; parameters: scale not given: the % may be the effect or the level left
Mus musculus [22] = assay: Antidiabetic activity in male db/db mouse assessed as increase in islet number at 30 nmol/kg, sc administered twice daily for 35 days; format: functional, organism-based; details: time 35.0 day
Mus musculus [23] = assay: Antidiabetic activity in overnight fasted male C57BL/6J mouse at 10 nmol/kg, ip administered at -30 mins and measured by oral glucose tolerance test; format: functional, organism-based
Mus musculus [24] = assay: Antidiabetic activity in male db/db mouse assessed as decrease in HbA1c level at 30 nmol/kg, sc administered twice daily for 35 days; format: functional, organism-based; details: time 35.0 day
Mus musculus [25] = assay: Antidiabetic activity in male DIO mouse assessed as reduction in acute food intake at 10 nmol/kg, sc measured at 24 hrs post administration; format: functional, organism-based
Mus musculus [26] = assay: Antidiabetic activity in male […] assessed as decrease in serum LDL-C level at 30 nmol/kg, sc administered twice daily for 3 weeks; format: functional, organism-based
Mus musculus [27] = assay: Antidiabetic activity in male db/db mouse assessed as improvement in glucose tolerance at 30 nmol/kg, sc administered twice daily for 35 days; format: functional, organism-based; details: time 35.0 day
Mus musculus [28] = assay: Antidiabetic activity in male […] assessed as increase in plasma insulin level at 30 nmol/kg, sc administered twice daily for 3 weeks; format: functional, organism-based
Mus musculus [29] = assay: Antidiabetic activity in male […] assessed as decrease in serum total cholesterol level at 30 nmol/kg, sc administered twice daily for 3 weeks; format: functional, organism-based
Mus musculus [30] = assay: Antidiabetic activity in male […] assessed as reduction in body weight at 30 nmol/kg, sc administered twice daily for 3 weeks; format: functional; parameters: scale not given: the % may be the effect or the level left
Mus musculus [31] = assay: Antidiabetic activity in male db/db mouse assessed as reduction in food consumption at 30 nmol/kg, sc administered twice daily for 35 days; format: functional, organism-based; details: time 35.0 day
[32] = Toxicity in male db/db mouse assessed as change in BUN level at 30 nmol/kg, sc administered twice daily for 35 days; format: organism-based; details: in vivo, 840 h, time 35 day
[33] = Toxicity in male db/db mouse assessed as change in serum amylase at 100 nmol/kg, sc administered twice daily for 7 days; format: organism-based; details: in vivo, 168 h, time 7 day
Mus musculus [34] = assay: Antidiabetic activity in male […] assessed as reduction in fat mas at 30 nmol/kg, sc administered twice daily for 3 weeks; format: functional, organism-based
[35] = Toxicity in male db/db mouse assessed as change in liver AST level at 30 nmol/kg, sc administered twice daily for 35 days; format: organism-based; details: in vivo, 840 h, time 35 day
Mus musculus [36] = assay: Antidiabetic activity in male db/db mouse assessed as significant reduction in body weight gain at 30 nmol/kg, sc administered twice daily for 35 days; format: functional, organism-based; details: time 35.0 day
[37] = Toxicity in male DIO mouse assessed as change in BUN at 100 nmol/kg, sc administered twice daily for 7 days; format: organism-based; details: in vivo, 168 h, time 7 day
Mus musculus [38] = assay: Antidiabetic activity in male db/db mouse assessed as increase in insulin IOD value at 30 nmol/kg, sc administered twice daily for 35 days; format: functional, organism-based; details: time 35.0 day
Mus musculus [39] = assay: Antidiabetic activity in male DIO mouse assessed as reduction in acute food intake at 10 nmol/kg, sc measured at 0 to 2 hrs post administration; format: functional, organism-based
[40] = Toxicity in male […] assessed as normalization of hepatic lipid content at 30 nmol/kg, sc administered twice daily for 3 weeks; format: organism-based; details: in vivo, 504 h
Mus musculus [41] = assay: Antidiabetic activity in DIO mouse assessed as reduction in plasma insulin level at 10 nmol/kg, ip pretreated with compound and followed by glucose challenge and measured by oral glucose tolerance test; format: functional, organism-based
[42] = AUC (infinity) in male Sprague-Dawley rat at 25 nmol/kg, iv administered as single dose and measured after 24 hrs by LC-MS/MS analysis; format: ADME, organism-based; parameters: time 24 hrs, dose 25 nmol/kg, route iv; details: in vivo

Sequence of Glucagon receptor (P47871 whole entry): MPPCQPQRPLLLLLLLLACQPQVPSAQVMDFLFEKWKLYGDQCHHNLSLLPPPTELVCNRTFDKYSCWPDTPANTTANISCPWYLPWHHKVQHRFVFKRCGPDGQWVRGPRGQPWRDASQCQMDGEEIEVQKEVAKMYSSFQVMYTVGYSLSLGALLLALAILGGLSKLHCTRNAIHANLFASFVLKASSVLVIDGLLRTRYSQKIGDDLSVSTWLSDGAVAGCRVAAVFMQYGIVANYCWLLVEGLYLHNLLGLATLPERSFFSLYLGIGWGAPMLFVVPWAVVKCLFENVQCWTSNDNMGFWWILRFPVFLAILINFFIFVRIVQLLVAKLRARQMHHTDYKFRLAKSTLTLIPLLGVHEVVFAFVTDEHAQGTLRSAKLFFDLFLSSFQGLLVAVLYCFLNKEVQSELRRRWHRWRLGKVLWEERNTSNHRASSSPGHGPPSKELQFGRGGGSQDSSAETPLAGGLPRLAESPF

CCCCCCCCCCCCCCCC(=O)N[C@@H](CCC(=O)NCCCC[C@H](NC(=O)[C@H](Cc1ccc(O)cc1)NC(=O)[C@H](CCCCN)NC(=O)[C@H](CO)NC(=O)[C@@H](NC(=O)[C@H](CC(=O)O)NC(=O)[C@H](CC(N)=O)NC(=O)[C@@H](NC(=O)[C@H](Cc1ccc(O)cc1)NC(=O)[C@@H](NC(=O)CNC(=O)[C@H](CCC(N)=O)NC(=O)[C@@H](CO)NC(=O)[C@@H](N)Cc1c[nH]cn1)[C@@H](C)O)[C@@H](C)O)C(C)C)C(=O)N[C@@H](CC(=O)O)C(=O)N[C@@H](CO)C(=O)N[C@@H](CCCNC(=N)N)C(=O)N[C@@H](CCCNC(=N)N)C(=O)N[C@@H](C)C(=O)N[C@@H](CCC(N)=O)C(=O)N[C@@H](CC(=O)O)C(=O)N[C@@H](Cc1ccccc1)C(=O)N[C@H](C(=O)N[C@@H](CCC(=O)O)C(=O)N[C@@H](Cc1c[nH]c2ccccc12)C(=O)N[C@@H](CC(C)C)C(=O)N[C@@H](CCCCN)C(=O)N[C@@H](CC(N)=O)C(=O)NCC(=O)NCC(=O)N1CCC[C@H]1C(=O)N[C@@H](CO)C(=O)N[C@@H](CO)C(=O)NCC(=O)N[C@@H](C)C(=O)N1CCC[C@H]1C(=O)N1CCC[C@H]1C(=O)N1CCC[C@H]1C(=O)N[C@@H](CO)C(N)=O)[C@@H](C)CC)C(=O)O
519 ng/mL: Cmax [16]
16.3%: Activity [17]
25%: Activity (Rattus norvegicus [21])
33%: Activity (Rattus norvegicus [8])
4200 ng·h/mL: AUC(0-inf) [42]
1510 ng/mL: Cmax [13]
Non-Toxic: Activity [1] | Activity [5] | Activity [9] | Activity [11] | Activity [12] | Activity [14] | Activity [15] | Activity [18] | Activity [19] | Activity [32] | Activity [33] | Activity [35] | Activity [37] | Activity [40]
7.7 h: MRT [4]
28.7%: Activity (Mus musculus [30])
active: Activity (Mus musculus [2]) | Activity (Mus musculus [3]) | Activity (Mus musculus [7]) | Activity (Mus musculus [10]) | Activity (Mus musculus [22]) | Activity (Mus musculus [23]) | Activity (Mus musculus [24]) | Activity (Mus musculus [25]) | Activity (Mus musculus [26]) | Activity (Mus musculus [27]) | Activity (Mus musculus [28]) | Activity (Mus musculus [29]) | Activity (Mus musculus [31]) | Activity (Mus musculus [34]) | Activity (Mus musculus [36]) | Activity (Mus musculus [38]) | Activity (Mus musculus [39]) | Activity (Mus musculus [41])
0.098 nM: EC50 (Glucagon receptor)
4610 ng·h/mL: AUC at 24 h [6]
29%: Activity (Rattus norvegicus [20])
